{"source": "patent US20250263644A1", "about": "“COMPOSITIONS COMPRISING YEAST CELLS AND POLYPHENOLS AND THEIR USE” (INSTITUT NATIONAL D'ETUDES SUPERIEURES AGRONOMIQUES DE …, priority 2015, published 2025)", "key": {"yeast cells [1]": {"test_system": "yeast cells", "experiment": "Adsorption isotherms: polyphenols adsorbed by yeast", "format": "binding, Saccharomyces cerevisiae", "details": "24 h contact in model wine, 10^8 cells/mL, A280 of supernatant; FIG. 7a", "description": "A contact time of 24 h was chosen for adsorption experiments. A stock solution of polyphenols with a molecular weight below 620 Da was prepared by dissolving catechin powder in a model wine at a concentration of 10 g/L. A stock solution of polyphenols with a molecular weight above 620 Da was prepared by dissolving grape skin tannins with a DPm of 20 in a model wine at a concentration of 10 g/L\nDilutions of both stock solutions were performed to get a final concentration range between 0.01 and 5 g/L. All sorption experiments were carried out by mixing equal volumes of a 2×g·L^−1 polyphenol solution (x being the final desired polyphenol concentration) and of a 2·10^8 cells/mL suspension (final concentration 10^8 cells/mL). Samples (2 ml) were placed in a 2 mL tightly closed Eppendorf in order to minimize headspace and were stirred continuously (Stuart rotator SB3, 40 rpm) in absence of light and at room temperature. […] The total polyphenol concentrations in the bulk were determined by absorbency measurements at 280 nm after adequate dilution. Total encapsulated polyphenol with a molecular weight below 620 Da and total encapsulated polyphenols with a molecular weight above 620 Da were calculated from the difference in absorbency between the samples and the corresponding controls using: […]"}, "yeast cells [2]": {"test_system": "yeast cells", "experiment": "Evaluation of the reversibility of polyphenol adsorption", "format": "binding, Saccharomyces cerevisiae", "details": "pellets re-suspended in model wine without polyphenols, 24 h; FIG. 7b", "description": "The yeast pellets obtained by centrifugation after adsorption above were re-suspended in 2 ml of a model wine without polyphenols. Samples were stirred for 24 h and the supernatants recovered. The adsorption reversibility was evaluated through the quantity of polyphenols recovered in supernatants."}}, "data": [{"substance": "catechin", "values": [{"measurement": "amounts of polyphenols adsorbed by yeast, compared with DPm 20", "setting": "yeast cells [1]", "result": "about 10 times lower"}, {"measurement": "reversibility of interactions between yeast and adsorbed polyphenols", "setting": "yeast cells [2]", "result": "fully reversible"}]}]}
